In patent EP0036357A1, “Antalgic and antiagregant cetonic derivatives of 5,6-diaryl-1,2,4-triazines, usable in the treatment of migraine” (PIERRE FABRE S.A., priority 1980, dated 1981):
Read-outs that look alike come from different tables or passages of the source.

Legend:
[1] = Tolerance on repeated administration; type: in vivo
[2] = Qualitative solubility in solvents; type: physicochemical; details: for Insoluble dans: solvents in which the compound is insoluble; for Soluble dans: solvents in which the compound is soluble
[3] = Acute toxicity (LD50) in mice, Miller and Tainter method; details: in vivo, mouse about 20 g
Description: L'étude de la toxicité a été effectuée chez la souris conventionnelle pesant environ 20 grammes.
Les substances ont été administrées par voie orale et intrapéritonéale. Les doses létales 50 sont exprimées en mg/kg et ont été calculées selon la méthode de MILLER et TAINTER, Proc. Soc. Exper. Biol. Med. 1944, 57, 261.
A titre d'exemple dans le tableau ci-dessous figurent quelques valeurs de doses toxiques provoquant 50 % de mortalité.

[4] = test system: contorsions à la phényl benzoquinone; test: Phenylbenzoquinone writhing test (Siegmund), analgesic activity; type: in vivo, souris; details: po, 0.5 h; dose giving 50 % decrease of writhes; per os, mouse, 30 minutes before i.p. phenylbenzoquinone; read-out: DE50 (the source's name)
Experimental: L'activité sur le test des contorsions à la phényl benzoquinone (selon SIEGMUND et Coll. - J. Pharm. Exptl. Ther. 1957, 119, 453) […] administration du produit per os; la dose est exprimée en mg/kg chez la souris 30 minutes avant l'injection […] sont exprimés en pourcentage de variation du nombre de contorsions; pour les molécules les plus actives, nous avons déterminé la dose qui provoque 50 % de diminution des contorsions DE50. Dans le tableau ci-dessous nous avons répertorié les molécules dont l'activité est supérieure ou é[…] (DE50 ≃ 40).

[5] = ip, intraperitoneal route, read-out: DL50 voie I.P.
[6] = oral route, read-out: DL50 voie orale

SMILES	tolérées par administration répétée [1]	Insoluble dans [2]	Soluble dans [2]	LD50 [3, 5]	LD50 [3, 6]	ED50 [4]
COc1ccc(-c2nc(=O)n(CC(C)=O)nc2-c2ccc(OC)cc2)cc1 [ST 753, Oxo-3 acétonyl-2 di(paraméthoxyphényl) 5-6 as triazine]	les mieux tolérées	l'eau, les acides et bases dilués, l'éther	l'éthanol, le benzène, le chlorure de méthylène et le chloroforme	> 500 mg/kg	> 1500 mg/kg	15 mg/kg
COc1ccc(-c2nc(=O)n(C(C)C(C)=O)nc2-c2ccc(OC)cc2)cc1 (stereo not drawn) [ST 765, Oxo-3 α méthylacétonyl-2 di (paraméthoxyphényl) 5-6 as triazine]	les mieux tolérées	l'eau, les acides et bases dilués, et l'éther	l'éthanol, le benzène, le chlorure de méthylène et le chloroforme	> 1000 mg/kg	> 2000 mg/kg	10 mg/kg
CC(=O)C(C)n1nc(-c2ccc(N(C)C)cc2)c(-c2ccc(N(C)C)cc2)nc1=O (stereo not shown) [ST 802, Oxo-3αméthylacétonyl-2 di(paradiméthylaminophényl) 5-6 as triazine]	–	l'eau, les bases diluées et l'éther	les acides dilués aqueux, l'éthanol, le benzène, le chlorure de méthylène et le chloroforme	–	> 1500 mg/kg	5 mg/kg
CN(C)c1ccc(-c2nc(=O)n(CC(=O)c3ccccc3)nc2-c2ccc(N(C)C)cc2)cc1 [ST 813, Oxo-3 acétophényl-2 di (paradiméthylaminophényl) 5-6 as triazine]	–	l'eau, les bases diluées, le benzène, l'éthanol et l'éther	les acides dilués aqueux, le chlorure de méthylène et le chloroforme	~750 mg/kg	> 1000 mg/kg	–
COc1ccc(-c2nc(=O)n(CC(=O)c3ccc(O)c(O)c3)nc2-c2ccc(OC)cc2)cc1 [ST 827, Oxo-3 (3,4 dihydroxyphénacyl)-2 di(paraméthoxyphényl) 5-6 as triazine]	–	l'eau, les acides dilués, le benzène, le chlorure de méthylène et l'éther	les bases diluées et l'éthanol	–	> 1000 mg/kg	–
CN(C)c1ccc(-c2nc(=O)n(CC(=O)c3ccc(O)c(O)c3)nc2-c2ccc(N(C)C)cc2)cc1 [ST 842, Oxo-3 (3,4 dihydroxyphénacyl)-2 di(paradiméthylaminophényl) 5-6 as triazine]	–	l'eau, le benzène, le chlorure de méthylène, l'éther	les acides et les basés dilués et l'éthanol	–	> 1000 mg/kg	–
COc1ccc(-c2nc(=O)n(CC(=O)c3ccc(Br)cc3)nc2-c2ccc(OC)cc2)cc1 [ST 844, Oxo-3 (p-bromophénacyl)-2 di(paraméthoxyphényl) 5-6 as triazine]	–	l'eau, les acides et bases dilués	l'éthanol, le benzène, le chlorure de méthylène, le chloroforme	~800 mg/kg	> 2000 mg/kg	–
COc1ccc(-c2nc(=O)n(C(C(=O)c3ccccc3)c3ccccc3)nc2-c2ccc(OC)cc2)cc1 (stereo not drawn) [ST 908, Oxo-3 (α phénylacétophénone)-2 di (paraméthoxyphényl)-5-6 as triazine]	–	l'eau, les acides et les bases dilués	l'éthanol, le chlorure de méthylène, le chloroforme et l'éther	> 500 mg/kg	> 1000 mg/kg	–
CC(=O)Cn1nc(-c2ccc(N(C)C)cc2)c(-c2ccc(N(C)C)cc2)nc1=O [ST 910, Oxo-3 acétonyl-2 di(paradiméthylaminophényl) 5-6 as triazine]	–	l'eau et les bases diluées, le benzène et l'éther	les acides dilués, l'éthanol, le chlorure de méthylène et le chloroforme	–	> 1500 mg/kg	4 mg/kg
CN(C)c1ccc(-c2nc(=O)n(C(C(=O)c3ccccc3)c3ccccc3)nc2-c2ccc(N(C)C)cc2)cc1 (stereo not drawn) [ST 911, Oxo-3 (α phénylacétophénone)-2 di(paradiméthylaminophényl) 5-6 as triazine]	–	l'eau, les bases diluées, l'éthanol et l'éther	les acides dilués, le benzène, le chlorure de méthylène et le chloroforme	–	> 1000 mg/kg	–
CC(=O)CCCn1nc(-c2ccc(N(C)C)cc2)c(-c2ccc(N(C)C)cc2)nc1=O [ST 924, Oxo-3 (δ propylméthylcétone)-2 di(p-diméthylaminophényl)-5-6 as triazine]	–	–	–	–	> 1500 mg/kg	7 mg/kg
CCC(=O)CCn1nc(-c2ccc(N(C)C)cc2)c(-c2ccc(N(C)C)cc2)nc1=O [ST 925, Oxo-3 ( δ diéthylcétone)-2 di(paradiméthyaminophényl) 5, 6 as triazine]	–	l'eau, les bases diluées et l'éther	les acides dilués, l'éthanol, le benzène, le chlorure de méthylène et le chloroforme	> 500 mg/kg	> 1000 mg/kg	5 mg/kg
CCC(=O)CCn1nc(-c2ccc(OC)cc2)c(-c2ccc(OC)cc2)nc1=O [ST 966, Oxo-3 (δ diéthylcétone)-2 di(paraméthoxyphényl)-5, 6 as triazine]	–	l'eau, les bases et les acides dilués et l'éther	l'éthanol, le benzène, le chlorure de méthylène et le chloroforme	–	> 2000 mg/kg	–
O=C(OCC(O)CO)c1ccccc1Nc1ccnc2cc(Cl)ccc12 (stereo not shown) [glafénine, reference compound]	–	–	–	–	–	~40 mg/kg
